In US8895585B2, “Nicotinamide derivative or salt thereof” (FUJIFILM Corporation, priority 2010, dated 2014) one finds IC50 data, which are given here for 41 compounds.

SMILES strings stand for the structures.

The first test deals with T1, glutathione S-transferase (GST)-fused full-length human Syk protein (Homo sapiens, UniProt P43405).
T1 construct: (GST)-fused full-length human Syk protein; GST (glutathione S-transferase); purchased Carna Biosciences
In words: Syk enzyme assay. The class given is biochemical. The conditions noted are these: Syk enzyme assay, Test Example 1; read-out: IC50 of Syk-inhibitory activity. In short, it runs like this: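 GST-tagged full-length human Syk (baculovirus) preincubated with compound 15 min at room temperature (pH 7.0, 10 mM MgCl2), then reacted 40 min with 0.4 μM biotinylated peptide substrate and 27 μM ATP (final). Phosphorylation read by HTRF (615/665 nm) after EDTA stop; IC50 reported.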
Broadly, the IC50 is the concentration needed to halve the response being measured. Turning to `CC(C)C[C@@H](Nc1nc(Nc2ccc3ncccc3c2)c(C(N)=O)cc1F)c1nnn[nH]1` [Example 012-026], the IC50 lay within 100 to 1000 nM.
Regarding `CC(C)COc1cc(Nc2nc(NC3CCCCC3N)c(F)cc2C(N)=O)ccn1` (centres unmarked) [Example 002-084], the IC50 was < 10 nM.
On the same count and under the same terms, next, `COc1ccc(-c2cncc(Nc3nc(N[C@@H](CN)CC(C)C)c(F)cc3C(N)=O)c2)c(F)c1` [Example 006-319, (R)-6-((1-amino-4-methylpentan-2-yl)amino)-5-fluoro-2-((5-(2-fluoro-4-methoxyphenyl)pyridin-3-yl)amino)nicotinamide]: 10 to 50 nM; `COc1ccc(-c2cc(Nc3nc(NC4CCCCC4N)c(F)cc3C(N)=O)ccn2)c(OC)c1` (centres unmarked) [Example 002-136]: 50 to 100 nM.
With `CC(=O)Nc1cccc2cc(Nc3nc(N[C@H](Cc4ccccc4)C(N)=O)c(F)cc3C(N)=O)cnc12` [Example 004-047], the half-maximal inhibitory concentration (IC50) lay within 10 to 50 nM.
As to `NC(=O)c1cc(F)c(N[C@@H]2CCCC[C@@H]2N)nc1Nc1cnc2c(NS(=O)(=O)c3ccc(Cl)cc3)cccc2c1` (relative stereo) [Example 41-6, 6-(cis-2-aminocyclohexylamino)-2-((8-(4-chlorophenylsulphonamide)quinolin-3-yl)amino)-5-fluoronicotinamide], the concentration for half-maximal inhibition (IC50) was in the range of 50 to 100 nM.
On to `NC(=O)c1cc(F)c(NC2CCCCC2N)nc1Nc1ccnc(-c2cccc(Cl)c2F)c1` (centres unmarked) [Example 002-146], for which the IC50 was < 10 nM.
Same read-out and setting: next, `CCOc1ccccc1-c1cncc(Nc2nc(N[C@@H]3CCCC[C@@H]3N)c(F)cc2C(N)=O)c1` (relative stereo) [Example 004-182, 6-(cis-2-aminocyclohexylamino)-2-((5-(2-ethoxyphenyl)pyridin-3-yl)amino)-5-fluoronicotinamide]: < 10 nM; `CCCOc1cc(Nc2nc(NC3CCCCC3N)c(F)cc2C(N)=O)ccn1` (centres unmarked) [Example 002-082]: < 10 nM.
On to `NC(=O)c1cc(F)c(N[C@@H]2CCCC[C@@H]2N)nc1Nc1ccnc(-c2cc[nH]c2)c1` (relative stereo) [Example 006-131, 2-((2-(1H-pyrrol-3-yl)pyridin-4-yl)amino)-6-((cis-2-aminocyclohexyl)amino)-5-fluoronicotinamide], for which the half-inhibitory concentration (IC50) is < 10 nM.
For `C[C@H](N)[C@@H](CC1CC1)Nc1nc(Nc2ccc3c(F)nn(C)c3c2)c(C(N)=O)cc1F` [Example 006-440, 6-(((2R,3S)-3-amino-1-cyclopropylbutan-2-yl)amino)-5-fluoro-2-((3-fluoro-1-methyl-1H-indazol-6-yl)amino)nicotinamide], the IC50 fell in the range of 10 to 50 nM.
Still for that read-out and setting: to `CCn1nc(C2CC2)c2cc(Nc3nc(N[C@H](CC4CC4)[C@H](C)N)c(F)cc3C(N)=O)ccc21` [Example 006-549, 6-(((2R,3S)-3-amino-1-cyclopropylbutan-2-yl)amino)-2-((3-cyclopropyl-1-ethyl-1H-indazol-5-yl)amino)-5-fluoronicotinamide] belongs < 10 nM; to `NC(=O)c1cc(F)c(N[C@@H]2CCCC[C@@H]2N)nc1Nc1cncc(NC(=O)c2ccno2)c1` (relative stereo) [Example 027-036, N-(5-(6-(cis-2-aminocyclohexylamino)-3-carbamoyl-5-fluoropyridin-2-yl)aminopyridin-3-yl)isoxazole-5-carboxamide], < 10 nM.
Turning to `NC(=O)c1cc(F)c(N[C@@H]2CCCC[C@@H]2N)nc1Nc1ccc2c(F)nn(C3CC3)c2c1` [Example 006-476, 6-(((1R,2S)-2-aminocyclohexyl)amino)-2-((1-cyclopropyl-3-fluoro-1H-indazol-6-yl)amino)-5-fluoronicotinamide], the half-inhibitory concentration (IC50) is < 10 nM.
As for `Cc1ncc(Nc2nc(N[C@@H]3CCCC[C@@H]3N)c(F)cc2C(N)=O)cc1Cl` [Example 006-567, 6-(((1R,2S)-2-aminocyclohexyl)amino)-2-((5-chloro-6-methylpyridin-3-yl)amino)-5-fluoronicotinamide], the IC50 lay in the range of 10 to 50 nM.
Consider `COCCn1ccc2cc(Nc3nc(N[C@@H]4CCCC[C@@H]4N)c(F)cc3C(N)=O)cc(F)c21` (relative stereo) [Example 004-081, 6-(cis-2-aminocyclohexylamino)-5-fluoro-2-((7-fluoro-1-(2-methoxyethyl)-1H-indol-5-yl)-amino)nicotinamide], for which the IC50 was < 10 nM.
The same measure, in the same setting: to `NC(=O)c1cc(F)c(NC2CCCCC2N)nc1Nc1ccnc(-c2ccc(F)cc2F)c1` (centres unmarked) [Example 002-133] belongs < 10 nM; to `NC(=O)c1cc(F)c(N[C@@H]2CCCC[C@@H]2N)nc1Nc1cncc(COCc2ccccc2)c1` (relative stereo) [Example 004-189, 6-(cis-2-aminocyclohexylamino)-2-((5-((benzyloxy)methyl)pyridin-3-yl)amino)-5-fluoronicotinamide], 50 to 100 nM.
On the same count and under the same terms, to `CC(C)(C)[C@H](CN)Nc1nc(Nc2ccc3ncccc3c2)c(C(N)=O)cc1F` [Example 006-162, (R)-6-((1-amino-3,3-dimethylbutan-2-yl)amino)-5-fluoro-2-(quinolin-6-ylamino)nicotinamide] belongs 50 to 100 nM.
Still for that read-out and setting: next, `COc1nc2ccc(Nc3nc(NC4CCCCC4N)c(F)cc3C(N)=O)cc2nc1OC` (centres unmarked) [Example 002-119]: < 10 nM; `NC(=O)c1cc(F)c(N[C@@H](CO)c2ccccc2)nc1Nc1ccc2ncccc2c1` [Example 012-024]: 100 to 1000 nM.
On to `Cn1nc(-n2cccn2)c2cc(Nc3nc(N[C@@H]4CCCC[C@@H]4N)c(F)cc3C(N)=O)ccc21` [Example 006-594, 6-(((1R,2S)-2-aminocyclohexyl)amino)-5-fluoro-2-((1-methyl-3-(1H-pyrazol-1-yl)-1H-indazol-5-yl)amino)nicotinamide], for which the IC50 is < 10 nM.
Still for that read-out and setting: next, `CC[C@@H](Nc1nc(Nc2cnc(OC)c(-n3nccn3)c2)c(C(N)=O)cc1F)[C@H](C)N` [Example 006-273, 6-(((2S,3R)-2-aminopentan-3-yl)amino)-5-fluoro-2-((6-methoxy-5-(2H-1,2,3-triazol-2-yl)pyridin-3-yl)amino)nicotinamide]: 100 to 1000 nM; `NC(=O)c1cc(F)c(NC2CCCCC2N)nc1Nc1ccc(N2CCCC2=O)nc1` (centres unmarked) [Example 002-156]: 50 to 100 nM.
With `CC(C)C[C@@H](Nc1nc(Nc2ccc3ncccc3c2)c(C(N)=O)cc1F)c1ncc[nH]1` [Example 012-030], the half-maximal inhibitory concentration (IC50) is 100 to 1000 nM.
The same measure, in the same setting: to `CCNc1nc(Nc2ccc3cn[nH]c3c2)c(C(N)=O)cc1F` [Example 006-018, 6-(ethylamino)-5-fluoro-2-((1H-indazol-6-yl)amino)nicotinamide] belongs 50 to 100 nM; to `COCCOc1ccc2ccc(Nc3nc(NC4CCCCC4N)c(F)cc3C(N)=O)cc2n1` (centres unmarked) [Example 002-090], < 10 nM; to `COc1cc(Nc2nc(NCCC(N)=O)c(F)cc2C(N)=O)cc(OC)c1` [Example 033-003], 100 to 1000 nM.
For the compound `NC(=O)c1cc(F)c(N[C@@H]2CCCC[C@@H]2N)nc1Nc1cncc(-c2ccc(Cl)cc2)c1` (relative stereo) [Example 004-148, 6-(cis-2-aminocyclohexylamino)-2-((5-(4-chlorophenyl)pyridin-3-yl)amino)-5-fluoronicotinamide], the IC50 lay within 10 to 50 nM.
As to `NC[C@H](Nc1nc(Nc2cncc(-c3ccccc3)c2)c(C(N)=O)cc1F)C1CC1` [Example 006-337, (R)-6-((2-amino-1-cyclopropylethyl)amino)-5-fluoro-2-((5-phenylpyridin-3-yl)amino)nicotinamide], the IC50 fell in the range of 10 to 50 nM.
Still for that read-out and setting: to `NC(=O)CNc1nc(Nc2ccc3ncccc3c2)c(C(N)=O)cc1F` [Example 012-019] belongs 50 to 100 nM; to `CCOc1ccc2cc(Nc3nc(NC4CCCCC4N)c(F)cc3C(N)=O)ccc2n1` (centres unmarked) [Example 002-103], < 10 nM; to `NC(=O)c1cc(F)c(N[C@H](Cc2ccccc2)C(N)=O)nc1Nc1ccnc2c1ccn2CCN1CCOCC1` [Example 004-045], 10 to 50 nM.
`COCCn1nc(F)c2c(Nc3nc(N[C@H](CC4CC4)[C@H](C)N)c(F)cc3C(N)=O)cccc21` [Example 006-490, 6-(((2R,3S)-3-amino-1-cyclopropylbutan-2-yl)amino)-5-fluoro-2-((3-fluoro-1-(2-methoxyethyl)-1H-indazol-4-yl)amino)nicotinamide]: the IC50 is 50 to 100 nM.
Turning to `NC(=O)c1cc(F)c(N[C@@H]2CCCC[C@@H]2N)nc1Nc1cncnc1` [Example 004-001], the concentration for half-maximal inhibition (IC50) fell in the range of 100 to 1000 nM.
Still for that read-out and setting: next, `NC(=O)c1cc(F)c(NC2CCCCC2N)nc1Nc1ccnc(-c2cc(F)ccc2F)c1` (centres unmarked) [Example 002-145]: < 10 nM; `CC[C@@H](Nc1nc(Nc2ccnc(-n3nccn3)c2)c(C(N)=O)cc1F)[C@H](C)N` [Example 006-254, 2-((2-(2H-1,2,3-triazol-2-yl)pyridin-4-yl)amino)-6-(((2S,3R)-2-aminopentan-3-yl)amino)-5-fluoronicotinamide]: 10 to 50 nM; `CCCC[C@H](CN)Nc1nc(Nc2cncc(C3CC3)c2)c(C(N)=O)cc1F` [Example 006-340, (R)-6-((1-aminohexan-2-yl)amino)-2-((5-cyclopropylpyridin-3-yl)amino)-5-fluoronicotinamide]: < 10 nM.

Still in this test, the particulars now being: read-out: Syk-inhibitory activity (IC50).
On to `COc1cc(Nc2nc(NC(C(N)=O)c3ccccc3)c(F)cc2C(N)=O)cc(OC)c1` (centres unmarked) [Example 16-9, 6-((2-amino-2-oxo-1-phenylethyl)amino)-2-((3,5-dimethoxyphenyl)amino)-5-fluoronicotinamide], for which the IC50 is ≤ 1000 nM.
On the same count and under the same terms, next, `CCNc1nc(Nc2ccc3cn[nH]c3c2)c(C(N)=O)cc1F` [Example 6-18, 6-(ethylamino)-5-fluoro-2-((1H-indazol-6-yl)amino)nicotinamide]: ≤ 1000 nM.
Consider `NC(=O)c1cc(F)c(Nc2cccnc2)nc1Nc1cnc2ccccc2c1` [Example 24, 5-fluoro-6-(pyridin-3-ylamino)-2-(quinolin-3-ylamino)nicotinamide], for which the IC50 was ≤ 1000 nM.
